For assay [1], the target named is T1, Tyrosine-protein phosphatase non-receptor type 1 (Rattus norvegicus) (UniProt P20417).
T1 sequence (whole entry): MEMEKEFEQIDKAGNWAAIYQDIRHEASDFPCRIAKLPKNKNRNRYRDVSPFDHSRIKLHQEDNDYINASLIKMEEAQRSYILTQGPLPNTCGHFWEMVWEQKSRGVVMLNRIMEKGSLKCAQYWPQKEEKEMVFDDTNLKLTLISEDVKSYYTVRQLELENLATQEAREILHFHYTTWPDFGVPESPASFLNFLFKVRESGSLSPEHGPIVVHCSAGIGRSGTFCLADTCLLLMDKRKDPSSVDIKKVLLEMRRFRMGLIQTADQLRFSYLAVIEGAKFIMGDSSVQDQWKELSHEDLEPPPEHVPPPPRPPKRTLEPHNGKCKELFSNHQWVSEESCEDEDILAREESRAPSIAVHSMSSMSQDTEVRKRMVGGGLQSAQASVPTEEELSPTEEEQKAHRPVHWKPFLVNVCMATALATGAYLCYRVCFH
Briefly: Percent inhibition of Protein-tyrosine phosphatase 1 (PTP) assayed at 100 uM.

Assay [2] has as its target T2, Tyrosine-protein phosphatase non-receptor type 11 (Mus musculus) (UniProt P35235).
T2 sequence (whole entry): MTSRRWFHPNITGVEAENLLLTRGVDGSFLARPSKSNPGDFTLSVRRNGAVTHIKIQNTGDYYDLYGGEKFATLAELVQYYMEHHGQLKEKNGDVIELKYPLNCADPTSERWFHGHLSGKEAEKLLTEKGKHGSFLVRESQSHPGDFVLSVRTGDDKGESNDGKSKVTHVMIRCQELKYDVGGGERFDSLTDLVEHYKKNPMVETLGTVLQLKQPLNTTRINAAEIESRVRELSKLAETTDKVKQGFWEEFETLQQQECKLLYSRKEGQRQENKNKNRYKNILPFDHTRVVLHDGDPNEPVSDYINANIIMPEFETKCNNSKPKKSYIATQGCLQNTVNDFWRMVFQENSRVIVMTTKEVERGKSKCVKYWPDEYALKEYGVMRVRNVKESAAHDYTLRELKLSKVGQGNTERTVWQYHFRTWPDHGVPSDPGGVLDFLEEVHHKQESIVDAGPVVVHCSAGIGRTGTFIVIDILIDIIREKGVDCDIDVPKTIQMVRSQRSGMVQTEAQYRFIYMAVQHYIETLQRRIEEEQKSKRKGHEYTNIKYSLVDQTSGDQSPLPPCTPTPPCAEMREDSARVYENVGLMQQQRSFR
Briefly: Percent inhibition of Tyrosine phosphatase SHP2 SH2 domain containing PTP involved in insulin uM. Also on record: concentration or dose not given beside the values. The conditions noted are these: concentration not given here.

Assay [3] addresses Receptor-type tyrosine-protein phosphatase F (Homo sapiens) (UniProt P10586). Briefly: Percent inhibition of Protein-tyrosine phosphatase Lar assayed at 100 uM.

Sequence of Receptor-type tyrosine-protein phosphatase F (Homo sapiens) (P10586 whole entry): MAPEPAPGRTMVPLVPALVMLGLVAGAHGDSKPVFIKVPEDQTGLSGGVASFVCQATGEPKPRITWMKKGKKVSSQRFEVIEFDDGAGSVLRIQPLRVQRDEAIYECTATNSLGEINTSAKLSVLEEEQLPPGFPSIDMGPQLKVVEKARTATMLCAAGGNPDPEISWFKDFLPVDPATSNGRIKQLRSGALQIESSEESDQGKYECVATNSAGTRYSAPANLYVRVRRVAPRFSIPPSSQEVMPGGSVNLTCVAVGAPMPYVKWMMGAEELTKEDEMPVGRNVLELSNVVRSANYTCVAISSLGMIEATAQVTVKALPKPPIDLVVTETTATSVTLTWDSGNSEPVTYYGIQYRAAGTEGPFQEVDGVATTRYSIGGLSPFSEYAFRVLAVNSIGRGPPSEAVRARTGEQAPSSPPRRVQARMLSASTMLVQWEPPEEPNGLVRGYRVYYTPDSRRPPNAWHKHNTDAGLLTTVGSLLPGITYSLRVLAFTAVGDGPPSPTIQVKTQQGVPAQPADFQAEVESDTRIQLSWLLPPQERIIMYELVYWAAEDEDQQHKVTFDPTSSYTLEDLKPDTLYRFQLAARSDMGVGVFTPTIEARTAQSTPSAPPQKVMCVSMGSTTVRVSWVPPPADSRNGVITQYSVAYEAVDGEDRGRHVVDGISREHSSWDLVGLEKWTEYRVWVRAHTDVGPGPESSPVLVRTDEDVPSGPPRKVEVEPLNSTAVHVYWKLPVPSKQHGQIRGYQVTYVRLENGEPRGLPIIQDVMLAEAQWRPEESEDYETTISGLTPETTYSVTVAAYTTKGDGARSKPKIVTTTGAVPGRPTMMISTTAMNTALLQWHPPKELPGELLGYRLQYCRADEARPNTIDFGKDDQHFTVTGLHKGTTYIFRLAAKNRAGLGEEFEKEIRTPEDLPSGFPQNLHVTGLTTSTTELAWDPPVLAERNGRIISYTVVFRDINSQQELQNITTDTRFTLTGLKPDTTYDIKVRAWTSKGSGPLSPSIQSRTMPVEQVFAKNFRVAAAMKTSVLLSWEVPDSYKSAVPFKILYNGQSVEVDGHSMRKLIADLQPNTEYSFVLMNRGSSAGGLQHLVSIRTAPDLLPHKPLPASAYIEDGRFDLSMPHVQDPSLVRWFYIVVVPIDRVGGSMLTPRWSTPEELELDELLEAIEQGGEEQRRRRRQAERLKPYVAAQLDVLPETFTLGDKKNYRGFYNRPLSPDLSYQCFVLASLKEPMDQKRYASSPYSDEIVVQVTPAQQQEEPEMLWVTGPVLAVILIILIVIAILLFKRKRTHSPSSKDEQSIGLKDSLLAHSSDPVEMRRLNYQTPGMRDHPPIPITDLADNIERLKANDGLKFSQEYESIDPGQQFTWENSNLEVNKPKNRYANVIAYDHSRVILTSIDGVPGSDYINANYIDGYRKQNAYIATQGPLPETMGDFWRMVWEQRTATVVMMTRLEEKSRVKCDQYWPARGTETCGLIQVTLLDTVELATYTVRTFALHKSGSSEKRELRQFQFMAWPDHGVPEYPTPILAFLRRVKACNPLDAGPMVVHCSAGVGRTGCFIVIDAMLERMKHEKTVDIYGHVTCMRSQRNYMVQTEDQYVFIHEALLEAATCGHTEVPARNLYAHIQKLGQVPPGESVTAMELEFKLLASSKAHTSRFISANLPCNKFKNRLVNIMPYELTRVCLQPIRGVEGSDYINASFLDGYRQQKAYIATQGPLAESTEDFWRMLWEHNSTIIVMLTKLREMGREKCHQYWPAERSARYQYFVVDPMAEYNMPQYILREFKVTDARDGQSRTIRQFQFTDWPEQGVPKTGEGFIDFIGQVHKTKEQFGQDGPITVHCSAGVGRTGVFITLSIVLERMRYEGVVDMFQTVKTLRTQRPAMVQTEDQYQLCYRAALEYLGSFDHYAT

The inhibition is the relative decrease from the control value, in per cent. `CCCCCNC(=O)C(Cc1ccc(OC(C(=O)O)C(=O)O)cc1)NC(=O)CCC(N)=O` (stereo not drawn) yielded an inhibition in assay [1] of 51%.
On to `CCCCCNC(=O)C(Cc1ccc(OC(C(=O)O)C(=O)O)cc1)NC(=O)[C@H](COc1ccc(Cc2cc(Cl)ccc2Cl)cc1)NC(=O)OC(C)(C)C` (stereo partly drawn), for which the inhibition is 85% in assay [1], 45% in assay [2] and 27% in assay [3].
Turning to `CCCCCNC(=O)C(Cc1ccc(OC(C(=O)O)C(=O)O)cc1)NC(=O)[C@H](CC(=O)O)NC(=O)CCCCC` (stereo partly drawn), the inhibition in assay [1] turned out to be 91%; in assay [2] it was 37%; in assay [3], 10%.
As to `CCCCCNC(=O)C(Cc1ccc(OC(C(=O)O)C(=O)O)cc1)NC(=O)[C@H](Cc1ccc(OC)cc1)NC(=O)OC(C)(C)C` (stereo partly drawn), the inhibition in assay [1] is 90%; in assay [2], 9%; in assay [3] it was 30%.
In the case of `CCCCCNC(=O)C(Cc1ccc(OC(C(=O)O)C(=O)O)cc1)NC(=O)[C@H](CC(=O)O)NC(=O)OC(C)(C)C` (stereo partly drawn), the inhibition worked out at 90% in assay [1], 12% in assay [2] and 10% in assay [3].
For `CCCCCNC(=O)[C@H](Cc1ccc(OC(C(=O)O)C(=O)O)cc1)NC(=O)[C@@H](Cc1ccc(C(=O)c2ccccc2)cc1)NC(=O)CCC(=O)O`, in that order: 54%, 11% and 6%.
In the same order, the values of `CC(C)CC(CO)NC(=O)C(Cc1ccc(OC(C(=O)O)C(=O)O)cc1)NC(=O)CCC(=O)O` (stereo not drawn) are 57%, 10% and 0%.
`O=C(O)CCC(=O)NC(Cc1ccc(OC(C(=O)O)C(=O)O)cc1)C(=O)NCCN1CCCCC1` (stereo not drawn): the inhibition in assay [1] is 23%; in assay [2] it was 1%.
For `O=C(O)CCC(=O)NC(Cc1ccc(OC(C(=O)O)C(=O)O)cc1)C(=O)NCCOc1ccccc1` (stereo not drawn), the inhibition in assay [1] was determined as 57%; in assay [2], 34%; in assay [3], 4%.
In the same order, the values of `CCCCCNC(=O)C(Cc1ccc(OC(C(=O)O)C(=O)O)cc1)NC(=O)CCCC(=O)O` (stereo not drawn) are 67%, 10% and 7%.
For `CCCCCNC(=O)C(Cc1ccc(CC(C(=O)O)C(=O)O)cc1)NC(=O)CCC(=O)O` (stereo not drawn), the inhibition was found to be 34% in assay [1], 3% in assay [2] and 3% in assay [3].
For the compound `O=C(O)CCC(=O)NC(Cc1ccc(OC(C(=O)O)C(=O)O)cc1)C(=O)NCc1ccc(C(F)(F)F)cc1` (stereo not drawn), the inhibition in assay [1] turned out to be 66%; in assay [2] it was 15%; in assay [3], 4%.
In the same order, the values of `CCCCCNC(=O)C(Cc1ccc(OC(C(=O)O)C(=O)O)cc1)NC(=O)[C@H](CC(=O)O)NC(=O)OCc1ccccc1` (stereo partly drawn) are 90%, 50% and 6%.
For the compound `O=C(O)CCC(=O)NC(Cc1ccc(OC(C(=O)O)C(=O)O)cc1)C(=O)NCCc1ccc(O)cc1` (stereo not drawn), in assay [1], the inhibition worked out at 43%.
As to `CCCCCCCCCCNC(=O)C(Cc1ccc(OC(C(=O)O)C(=O)O)cc1)NC(=O)CCC(=O)O` (stereo not drawn), the inhibition in assay [1] turned out to be 51%; in assay [2], 9%; in assay [3], 4%.
`CCCCCNC(=O)C(Cc1ccc(OC(C(=O)O)C(=O)O)c(F)c1)NC(=O)CCC(=O)O` (stereo not drawn): the inhibition in assay [1] amounted to 78%; in assay [2], 9%; in assay [3] it was 4%.
In the case of `CCCCCNC(=O)C(Cc1ccc(O/C(=C/C(=O)O)C(=O)O)cc1)NC(=O)CCC(=O)O` (stereo not drawn), the values for the inhibition in assay [1] and in assay [2] were 50% and 5%, respectively.
Consider `CCCCCNC(=O)C(Cc1ccc(OC(C(=O)O)C(=O)O)cc1)NC(=O)[C@H](Cc1ccc(OC)cc1)NC(=O)CCC(=O)O` (stereo partly drawn), for which the inhibition stood at 98% in assay [1], 33% in assay [2] and 22% in assay [3].
`CCCCCNC(=O)C(Cc1ccc(OS(=O)(=O)C(F)(F)F)cc1)NC(=O)CCC(=O)O` (stereo not drawn) registered an inhibition in assay [1] of 0%.
For `CCCCCNC(=O)C(Cc1ccc(OC(C(=O)O)C(=O)O)c(F)c1F)NC(=O)CCC(=O)O` (stereo not drawn), the inhibition was determined as 85% in assay [1], 23% in assay [2] and 12% in assay [3].
`CCCCCNC(=O)C(CCc1ccc(OC(C(=O)O)C(=O)O)cc1)NC(=O)CCC(=O)O` (stereo not drawn): the inhibition in assay [1] came to 18%; in assay [2] it was 10%; in assay [3] it was 0%.
In the same order, the values of `CCCCCNC(=O)C(Cc1ccc(O)c(C(=O)O)c1)NC(=O)CCC(=O)O` (stereo not drawn) are 0%, 3% and 0%.
In the same order, the values of `CCCCCNC(=O)C(Cc1ccc(C=C(C(=O)O)C(=O)O)cc1)NC(=O)CCC(=O)O` (stereo not drawn) are 33%, 52% and 2%.
On to `CCCCCNC(=O)C(Cc1ccc(OC(C(=O)O)C(=O)O)cc1)NC(=O)[C@H](CCC(=O)O)NC(=O)OC(C)(C)C` (stereo partly drawn), for which the inhibition in assay [1] worked out at 83%; in assay [2] it was 14%; in assay [3] it was 11%.
For `CCCCCNC(=O)C(Cc1ccc(OC(C(=O)O)C(=O)O)cc1)NC(=O)CC(C)(C)CC(=O)O` (stereo not drawn), the inhibition in assay [1] was 67%; in assay [2] it was 16%; in assay [3], 6%.
With `NS(=O)(=O)c1ccc(CCNC(=O)C(Cc2ccc(OC(C(=O)O)C(=O)O)cc2)NC(=O)CCC(=O)O)cc1` (stereo not drawn), the inhibition in assay [1] was 63%; in assay [2], 17%; in assay [3], 5%.
As for `CCCCCNC(=O)C(Cc1ccc(OC(C(=O)O)C(=O)O)cc1)NC(=O)c1ccccc1C(=O)O` (stereo not drawn), the inhibition is 63% in assay [1], 19% in assay [2] and 10% in assay [3].
In the same order, the values of `CCCCCNC(=O)C(Cc1ccc(OC(C(=O)O)C(=O)O)cc1)NC(=O)[C@H]1C[C@@H]1C(=O)O` (stereo partly drawn) are 57%, 10% and 6%.
As to `O=C(O)CCC(=O)NC(Cc1ccc(OC(C(=O)O)C(=O)O)cc1)C(=O)NCCCN1CCOCC1` (stereo not drawn), the results for the inhibition in assay [1], in assay [2] and in assay [3] were 35%, 2% and 0%, respectively.
As to `CCCCCNC(=O)C(Cc1ccc(OC(C(=O)O)C(=O)O)cc1)NC(=O)[C@H]1CCCC[C@@H]1C(=O)O` (stereo partly drawn), the inhibition was found to be 72% in assay [1], 10% in assay [2] and 7% in assay [3].
On to `O=C(O)CCC(=O)NC(Cc1ccc(OC(C(=O)O)C(=O)O)cc1)C(=O)NCc1ccc(C(=O)O)cc1` (stereo not drawn), for which the inhibition is 56% in assay [1], 58% in assay [2] and 2% in assay [3].
`CCCCCNC(=O)C(Cc1ccc(OC(C(=O)OCC)C(=O)OCC)cc1)NC(=O)CCC(=O)O` (stereo not drawn): the values for the inhibition in assay [1] and in assay [2] were 1% and 0%, respectively.
Consider `O=C(O)CCC(=O)NC(Cc1ccc(OC(C(=O)O)C(=O)O)cc1)C(=O)NCc1cccc2ccccc12` (stereo not drawn), for which the figures for the inhibition in assay [1], in assay [2] and in assay [3] were 61%, 12% and 10%, respectively.
Consider `CCCCCNC(=O)C(Cc1ccc(OC(C(=O)O)C(=O)O)cc1)NC(=O)[C@H](Cc1ccc(OCc2ccccc2)cc1)NC(=O)CCC(=O)O` (stereo partly drawn), for which the values for the inhibition in assay [1], in assay [2] and in assay [3] were 98%, 33% and 28%, respectively.
For `O=C(O)CCC(=O)NC(Cc1ccc(OC(C(=O)O)C(=O)O)cc1)C(=O)NCC1CCCCC1` (stereo not drawn), the inhibition is 73% in assay [1], 12% in assay [2] and 5% in assay [3].
On to `CCCCCNC(=O)C(Cc1ccc(OC(C(=O)O)C(=O)O)cc1)NC(=O)[C@H](Cc1ccc(C(=O)c2ccccc2)cc1)NC(=O)OC(C)(C)C` (stereo partly drawn), for which the inhibition turned out to be 91% in assay [1], 11% in assay [2] and 24% in assay [3].
In the same order, the values of `O=C(O)CCC(=O)NC(Cc1ccc(OC(C(=O)O)C(=O)O)cc1)C(=O)NCCCc1ccccc1` (stereo not drawn) are 72%, 12% and 6%.
Regarding `CCCCCNC(=O)C(Cc1ccc(OC(=O)CC(=O)O)cc1)NC(=O)CCC(=O)O` (stereo not drawn), the inhibition in assay [1] is 2%; in assay [2], 0%.
`CCCCCNC(=O)C(Cc1ccc(OS(C)(=O)=O)cc1)NC(=O)CCC(=O)O` (stereo not drawn) yielded an inhibition in assay [1] of 0%.
Same read-out and setting: the result for `CCCCCNC(=O)C(Cc1ccc(OC(C(=O)O)C(=O)O)cc1)NC(=O)CCC(=O)OCc1ccccc1` (stereo not drawn) reads 39%.
For `CCCCCNC(=O)C(Cc1ccc(OC(CC(=O)O)C(=O)O)cc1)NC(=O)CCC(=O)O` (stereo not drawn), the inhibition in assay [1] amounted to 34%; in assay [2], 4%.

Source of the values: ChEMBL document CHEMBL1135703, “Synthesis and biological activity of a novel class of small molecular weight peptidomimetic competitive inhibitors of protein tyrosine phosphatase 1B” (2002).
